Laboratory results reported in patent US20250295665A1, “SELECTIVE K-RAS INHIBITORS FOR THE ENHANCEMENT OF ADOPTIVE IMMUNOTHERAPIES” (H. LEE MOFFITT CANCER CENTER AND RESEARCH INSTITUTE INC., priority 2022, published 2025).

Columns and labels:
[1] = test system: CT26-G12C colon cancer cells; format: in vivo, mouse
Procedure: CT26-G12C colon cancer cells were SC. Implanted in BALB/C mice, and left to develop SC. Tumors for 20 days, then treated with oral gavage of 3 mg/kg/mouse TRA or 30 mg/kg/mouse AMG-510 for 6 days alone or for 20 days with anti-PD1 Ab (IP 200 μg/mouse twice a week). Tumor size was measured till mice being sacrificed. tumors were collected and stained for T cell, and Myeloid cell markers mouse antibodies (anti-CD45, anti-CD8, anti-CD4, anti-CD3, anti-CD69, anti-PD1, anti-CD25, anti-CD62L, anti-CD44, anti-F4/80, anti-CD11C, anti-CD11b, anti-Ly6G, ant-Ly6C and Live/Dead near IR viability dye). CM (central memory): CD62L+CD44+, EM (Effector memory) CD62L-CD44+. Mice survival was assessed using Kaplan-Meier survival test.

HCC44-PSCA = HCC44-PSCA SC tumors in NSG mice with IV CAR-T transfer (human T cell ACT mouse model); format: in vivo
Procedure: Inoculated in NSG mice and received IV CART transfer with AMG-510 Orla gavage (30 mg/Kg/Mouse for 6 days then sacrificed and tumors were collected and stained with T cells markers, or for 20 days with IP anti-human PD1 Ab (twice a week) for Tumor growth curve.

CT26-G12C tumors = test: Single cell RNA sequencing of CT26-G12C tumors; format: in vivo, mouse
Text: UMAP projections were generated from scRNA-seq data and used for visualization. Cell type clusters detected in DAPI-sorted cells from CT26-G12C SC. Tumors (FIG. 4A), or from CT26-G12C in vitro cell line (FIG. 4D) treated with the indicated conditions are shown, with cell % percentage histogram and gene-level expression heat map calculated for each cluster.

In the case of C=CC(=O)N1CCN(c2nc(=O)n(-c3c(C)ccnc3C(C)C)c3nc(-c4c(O)cccc4F)c(F)cc23)[C@@H](C)C1 (atropisomer, axis not shown) [Sotorasib, 6-fluoro-7-(2-fluoro-6-hydroxyphenyl)-(1/W)-1-[4-methyl-2-(propan-2-yl)pyridin-3-yl]-4-[(2S)-2-methyl-4-(prop-2-enoyl)piperazin-1-yl]pyrido[2,3-cf]pyrimidin-2 (1/-/)-one], the “expansion of tumor infiltrating lymphocytes (TILs)” value ([1]; CT26-G12C heterotrophic mouse model, 30 mg/kg/mouse oral gavage, 6 days) is reported as “significantly promoted the expansion of tumor infiltrating lymphocytes”, the “mouse survival (Kaplan-Meier)” value ([1]; combined with anti-PD-1, CT26-G12C model) is reported as “prolonging mouse survival” and the “tumor microenvironment / T cell effector phenotype” value ([1]; mouse tumor models) is reported as “strikingly augmented T cell effector phenotype”. For the same molecule, the “control of CT26-G12C tumor growth” value ([1]; mouse, in vivo, ip) was “synergized with anti-PD-1 in controlling CT26-G12C tumor growth”, the “anti-tumor effect of CAR-T adoptive cell transfer and anti-PD1” value (HCC44-PSCA; combined with CAR-T adoptive cell transfer and anti-PD1 treatment) was “enhanced their anti-tumor effect” and the “expansion of tumor infiltrating lymphocytes (TILs)” value (HCC44-PSCA; human T cell adoptive therapy (ACT) mouse model, 30 mg/Kg/Mouse oral gavage, 6 days) was “significantly promoted the expansion of tumor infiltrating lymphocytes”. For the same molecule, the “immuno-active and growth-active tumor clusters (scRNA-seq, cell % per cluster)” value (CT26-G12C tumors; CT26-G12C SC tumors and in vitro cell line) was “enriches the immuno-active and diminishes growth-active tumor clusters” and the “tumor clusters by top upregulated pathways (scRNA-seq)” value (CT26-G12C tumors; Sotorasib-treated CT26-G12C tumors) was “enrichment of tumor clusters with TNFα and IFNγ as top upregulated pathways”.
